The results in this text go back to ChEMBL document CHEMBL1149912, “Chemical fragments as foundations for understanding target space and activity prediction” (J Med Chem, 2008).

The target of one assay is T1, Renin (Homo sapiens) (UniProt P00797).
T1 sequence (whole entry): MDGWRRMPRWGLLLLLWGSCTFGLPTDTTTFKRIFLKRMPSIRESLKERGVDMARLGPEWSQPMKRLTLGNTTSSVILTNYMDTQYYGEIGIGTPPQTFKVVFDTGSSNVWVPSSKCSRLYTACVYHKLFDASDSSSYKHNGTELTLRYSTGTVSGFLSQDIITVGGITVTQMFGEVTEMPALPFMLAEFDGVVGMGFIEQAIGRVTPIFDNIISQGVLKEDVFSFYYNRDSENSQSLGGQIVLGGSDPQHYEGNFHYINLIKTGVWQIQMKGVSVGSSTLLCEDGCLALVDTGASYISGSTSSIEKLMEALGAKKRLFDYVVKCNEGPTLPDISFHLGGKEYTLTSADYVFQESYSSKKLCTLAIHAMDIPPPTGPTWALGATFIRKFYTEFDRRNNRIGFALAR
Briefly: Inhibition of REN.

Assay [1] addresses Muscarinic acetylcholine receptor M3 (Homo sapiens) (UniProt P20309). As to the kind of experiment: Inhibition of CHRM3.
The target in assay [2] is Prothrombin (Homo sapiens) (UniProt P00734). As to the kind of experiment: Inhibition of thrombin.
Assay [3] addresses T2, Cholecystokinin receptor type A (Homo sapiens) (UniProt P32238).
T2 sequence (whole entry): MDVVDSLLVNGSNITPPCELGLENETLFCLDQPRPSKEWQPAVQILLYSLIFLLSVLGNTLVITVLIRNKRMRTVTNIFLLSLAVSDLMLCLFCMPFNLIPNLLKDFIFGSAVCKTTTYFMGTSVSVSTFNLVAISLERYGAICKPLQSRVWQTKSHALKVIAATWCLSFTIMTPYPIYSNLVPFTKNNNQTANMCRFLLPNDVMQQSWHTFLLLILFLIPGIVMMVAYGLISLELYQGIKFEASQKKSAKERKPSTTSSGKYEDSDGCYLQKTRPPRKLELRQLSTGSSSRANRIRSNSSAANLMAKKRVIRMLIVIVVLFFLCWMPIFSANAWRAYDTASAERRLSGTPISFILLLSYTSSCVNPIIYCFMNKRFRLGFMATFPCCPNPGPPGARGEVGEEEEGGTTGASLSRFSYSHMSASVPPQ
Briefly: Inhibition of CCKAR.

Assay [4] concerns the target Voltage-dependent N-type calcium channel subunit alpha-1B (Homo sapiens) (UniProt Q00975). Briefly: Inhibition of CACNA1B.
Assay [5] addresses T3, Prostaglandin D2 receptor 2 (Homo sapiens) (UniProt Q9Y5Y4).
T3 sequence (whole entry): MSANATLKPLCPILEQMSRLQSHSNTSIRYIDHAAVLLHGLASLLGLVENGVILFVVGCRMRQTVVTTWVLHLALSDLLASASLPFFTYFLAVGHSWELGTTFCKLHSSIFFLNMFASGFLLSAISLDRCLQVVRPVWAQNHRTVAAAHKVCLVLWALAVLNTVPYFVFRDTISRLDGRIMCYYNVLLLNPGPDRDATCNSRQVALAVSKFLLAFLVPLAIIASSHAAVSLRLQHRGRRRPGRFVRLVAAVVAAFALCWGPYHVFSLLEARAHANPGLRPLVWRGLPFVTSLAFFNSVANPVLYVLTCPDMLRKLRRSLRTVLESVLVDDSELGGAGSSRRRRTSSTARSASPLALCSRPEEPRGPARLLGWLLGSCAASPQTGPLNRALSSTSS
As to the kind of experiment: Inhibition of GPR44.

The target of assay [6] is T4, Glucocorticoid receptor (Homo sapiens) (UniProt P04150).
T4 sequence (whole entry): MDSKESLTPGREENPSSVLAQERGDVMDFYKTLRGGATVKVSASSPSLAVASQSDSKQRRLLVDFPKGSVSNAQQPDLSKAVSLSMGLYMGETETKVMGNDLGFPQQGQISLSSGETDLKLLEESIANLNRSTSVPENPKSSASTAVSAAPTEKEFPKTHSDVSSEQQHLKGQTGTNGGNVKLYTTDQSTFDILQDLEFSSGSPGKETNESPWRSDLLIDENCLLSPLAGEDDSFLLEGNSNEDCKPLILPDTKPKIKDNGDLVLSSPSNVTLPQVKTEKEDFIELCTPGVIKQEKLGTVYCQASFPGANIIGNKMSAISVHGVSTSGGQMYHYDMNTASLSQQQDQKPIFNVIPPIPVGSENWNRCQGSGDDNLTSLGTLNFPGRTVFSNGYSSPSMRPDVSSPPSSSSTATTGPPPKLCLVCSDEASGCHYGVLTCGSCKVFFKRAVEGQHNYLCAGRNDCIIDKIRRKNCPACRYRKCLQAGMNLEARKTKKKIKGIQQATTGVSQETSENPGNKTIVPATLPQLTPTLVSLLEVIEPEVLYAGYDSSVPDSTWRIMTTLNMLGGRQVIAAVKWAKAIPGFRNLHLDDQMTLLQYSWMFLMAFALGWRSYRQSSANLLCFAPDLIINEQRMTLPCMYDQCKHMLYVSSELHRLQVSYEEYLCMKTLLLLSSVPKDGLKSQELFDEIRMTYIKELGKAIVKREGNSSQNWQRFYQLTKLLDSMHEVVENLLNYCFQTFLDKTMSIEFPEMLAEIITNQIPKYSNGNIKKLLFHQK
Briefly: Inhibition of NR3C1.

The target in assay [7] is Leukotriene B4 receptor 1 (Homo sapiens) (UniProt Q15722). As to the kind of experiment: Inhibition of LTB4R.
Leukotriene B4 receptor 1 (Homo sapiens), sequence (Q15722 whole entry): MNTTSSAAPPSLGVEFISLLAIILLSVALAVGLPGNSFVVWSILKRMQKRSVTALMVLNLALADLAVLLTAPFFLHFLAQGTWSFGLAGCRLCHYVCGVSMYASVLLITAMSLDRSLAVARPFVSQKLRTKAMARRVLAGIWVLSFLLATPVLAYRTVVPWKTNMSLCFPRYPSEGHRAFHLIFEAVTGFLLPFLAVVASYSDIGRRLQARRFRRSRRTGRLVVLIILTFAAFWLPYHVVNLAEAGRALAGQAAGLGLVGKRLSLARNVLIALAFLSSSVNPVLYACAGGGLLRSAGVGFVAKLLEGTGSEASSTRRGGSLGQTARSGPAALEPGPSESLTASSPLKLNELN
Assay [8] concerns the target Kappa-type opioid receptor (Homo sapiens) (UniProt P41145). Briefly: Inhibition of OPRK1.
In assay [9] the target is Aldo-keto reductase family 1 member B1 (Homo sapiens) (UniProt P15121). Briefly: Inhibition of AKR1B1.
In assay [10] the test system is NMDA receptor subunit 1, GRIN1. As to the kind of experiment: Inhibition of GRIN1.
For assay [11], the target named is Mitogen-activated protein kinase 14 (Homo sapiens) (UniProt Q16539). Briefly: Inhibition of MAPK14.
The target in assay [12] is Neprilysin (Homo sapiens) (UniProt P08473). As to the kind of experiment: Inhibition of MME.
Neprilysin (Homo sapiens), sequence (P08473 whole entry): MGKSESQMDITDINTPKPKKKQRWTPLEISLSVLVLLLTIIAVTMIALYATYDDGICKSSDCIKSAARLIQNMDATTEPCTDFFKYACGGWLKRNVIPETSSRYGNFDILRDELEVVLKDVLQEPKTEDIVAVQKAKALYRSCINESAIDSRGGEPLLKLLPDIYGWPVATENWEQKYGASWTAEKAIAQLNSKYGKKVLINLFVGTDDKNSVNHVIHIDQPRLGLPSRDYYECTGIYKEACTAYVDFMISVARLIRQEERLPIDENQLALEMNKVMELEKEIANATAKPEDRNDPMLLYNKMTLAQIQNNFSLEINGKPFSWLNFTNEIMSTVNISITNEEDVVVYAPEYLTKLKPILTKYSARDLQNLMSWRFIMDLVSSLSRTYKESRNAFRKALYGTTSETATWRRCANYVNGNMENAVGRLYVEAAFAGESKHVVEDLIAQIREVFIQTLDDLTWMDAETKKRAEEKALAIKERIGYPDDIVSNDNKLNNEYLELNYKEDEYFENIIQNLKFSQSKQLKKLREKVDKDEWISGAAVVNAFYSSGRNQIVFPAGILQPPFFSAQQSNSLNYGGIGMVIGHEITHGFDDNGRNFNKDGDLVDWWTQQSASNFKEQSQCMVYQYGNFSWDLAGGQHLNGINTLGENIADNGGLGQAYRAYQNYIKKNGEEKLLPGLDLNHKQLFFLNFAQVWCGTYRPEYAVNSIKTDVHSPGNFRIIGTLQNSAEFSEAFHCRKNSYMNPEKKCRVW
The target in assay [13] is Cathepsin B (Homo sapiens) (UniProt P07858). As to the kind of experiment: Inhibition of CTSB.
For assay [14], the target named is Sodium-dependent dopamine transporter (Homo sapiens) (UniProt Q01959). Briefly: Inhibition of SLC6A3.
Sodium-dependent dopamine transporter (Homo sapiens), sequence (Q01959 whole entry): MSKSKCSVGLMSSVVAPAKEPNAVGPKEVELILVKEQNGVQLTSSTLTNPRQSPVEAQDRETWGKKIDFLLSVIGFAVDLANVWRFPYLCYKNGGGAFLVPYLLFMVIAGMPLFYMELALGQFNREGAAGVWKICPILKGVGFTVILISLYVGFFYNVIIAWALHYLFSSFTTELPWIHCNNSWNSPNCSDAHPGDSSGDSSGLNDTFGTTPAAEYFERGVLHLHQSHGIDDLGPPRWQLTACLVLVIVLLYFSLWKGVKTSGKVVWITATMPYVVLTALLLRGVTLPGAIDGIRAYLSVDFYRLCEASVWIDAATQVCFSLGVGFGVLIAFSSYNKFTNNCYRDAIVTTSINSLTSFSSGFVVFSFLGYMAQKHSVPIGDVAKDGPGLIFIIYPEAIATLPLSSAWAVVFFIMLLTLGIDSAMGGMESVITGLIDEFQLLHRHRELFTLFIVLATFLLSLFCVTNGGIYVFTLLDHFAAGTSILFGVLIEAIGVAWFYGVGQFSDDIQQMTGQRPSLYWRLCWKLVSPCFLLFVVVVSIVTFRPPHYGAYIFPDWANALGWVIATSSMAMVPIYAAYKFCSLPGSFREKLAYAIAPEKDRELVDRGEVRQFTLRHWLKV
In assay [15] the target is Stromelysin-1 (Homo sapiens) (UniProt P08254). As to the kind of experiment: Inhibition of MMP3.
Stromelysin-1 (Homo sapiens), sequence (P08254 100-477 limits assumed): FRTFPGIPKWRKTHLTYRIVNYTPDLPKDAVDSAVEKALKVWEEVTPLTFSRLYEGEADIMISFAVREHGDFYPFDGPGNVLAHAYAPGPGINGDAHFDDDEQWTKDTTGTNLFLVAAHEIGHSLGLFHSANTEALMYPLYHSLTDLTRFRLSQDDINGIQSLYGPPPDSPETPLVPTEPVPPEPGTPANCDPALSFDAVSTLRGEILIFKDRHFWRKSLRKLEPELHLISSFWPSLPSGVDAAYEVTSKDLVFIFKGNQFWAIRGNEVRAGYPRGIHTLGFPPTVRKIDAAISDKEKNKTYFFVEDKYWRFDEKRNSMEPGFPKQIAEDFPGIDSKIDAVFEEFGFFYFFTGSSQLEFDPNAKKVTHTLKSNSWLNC
For assay [16], the target named is Metabotropic glutamate receptor 2 (Homo sapiens) (UniProt Q14416). Briefly: Inhibition of GRM2.

Voltage-dependent N-type calcium channel subunit alpha-1B (Homo sapiens), sequence (Q00975 whole entry, looked up): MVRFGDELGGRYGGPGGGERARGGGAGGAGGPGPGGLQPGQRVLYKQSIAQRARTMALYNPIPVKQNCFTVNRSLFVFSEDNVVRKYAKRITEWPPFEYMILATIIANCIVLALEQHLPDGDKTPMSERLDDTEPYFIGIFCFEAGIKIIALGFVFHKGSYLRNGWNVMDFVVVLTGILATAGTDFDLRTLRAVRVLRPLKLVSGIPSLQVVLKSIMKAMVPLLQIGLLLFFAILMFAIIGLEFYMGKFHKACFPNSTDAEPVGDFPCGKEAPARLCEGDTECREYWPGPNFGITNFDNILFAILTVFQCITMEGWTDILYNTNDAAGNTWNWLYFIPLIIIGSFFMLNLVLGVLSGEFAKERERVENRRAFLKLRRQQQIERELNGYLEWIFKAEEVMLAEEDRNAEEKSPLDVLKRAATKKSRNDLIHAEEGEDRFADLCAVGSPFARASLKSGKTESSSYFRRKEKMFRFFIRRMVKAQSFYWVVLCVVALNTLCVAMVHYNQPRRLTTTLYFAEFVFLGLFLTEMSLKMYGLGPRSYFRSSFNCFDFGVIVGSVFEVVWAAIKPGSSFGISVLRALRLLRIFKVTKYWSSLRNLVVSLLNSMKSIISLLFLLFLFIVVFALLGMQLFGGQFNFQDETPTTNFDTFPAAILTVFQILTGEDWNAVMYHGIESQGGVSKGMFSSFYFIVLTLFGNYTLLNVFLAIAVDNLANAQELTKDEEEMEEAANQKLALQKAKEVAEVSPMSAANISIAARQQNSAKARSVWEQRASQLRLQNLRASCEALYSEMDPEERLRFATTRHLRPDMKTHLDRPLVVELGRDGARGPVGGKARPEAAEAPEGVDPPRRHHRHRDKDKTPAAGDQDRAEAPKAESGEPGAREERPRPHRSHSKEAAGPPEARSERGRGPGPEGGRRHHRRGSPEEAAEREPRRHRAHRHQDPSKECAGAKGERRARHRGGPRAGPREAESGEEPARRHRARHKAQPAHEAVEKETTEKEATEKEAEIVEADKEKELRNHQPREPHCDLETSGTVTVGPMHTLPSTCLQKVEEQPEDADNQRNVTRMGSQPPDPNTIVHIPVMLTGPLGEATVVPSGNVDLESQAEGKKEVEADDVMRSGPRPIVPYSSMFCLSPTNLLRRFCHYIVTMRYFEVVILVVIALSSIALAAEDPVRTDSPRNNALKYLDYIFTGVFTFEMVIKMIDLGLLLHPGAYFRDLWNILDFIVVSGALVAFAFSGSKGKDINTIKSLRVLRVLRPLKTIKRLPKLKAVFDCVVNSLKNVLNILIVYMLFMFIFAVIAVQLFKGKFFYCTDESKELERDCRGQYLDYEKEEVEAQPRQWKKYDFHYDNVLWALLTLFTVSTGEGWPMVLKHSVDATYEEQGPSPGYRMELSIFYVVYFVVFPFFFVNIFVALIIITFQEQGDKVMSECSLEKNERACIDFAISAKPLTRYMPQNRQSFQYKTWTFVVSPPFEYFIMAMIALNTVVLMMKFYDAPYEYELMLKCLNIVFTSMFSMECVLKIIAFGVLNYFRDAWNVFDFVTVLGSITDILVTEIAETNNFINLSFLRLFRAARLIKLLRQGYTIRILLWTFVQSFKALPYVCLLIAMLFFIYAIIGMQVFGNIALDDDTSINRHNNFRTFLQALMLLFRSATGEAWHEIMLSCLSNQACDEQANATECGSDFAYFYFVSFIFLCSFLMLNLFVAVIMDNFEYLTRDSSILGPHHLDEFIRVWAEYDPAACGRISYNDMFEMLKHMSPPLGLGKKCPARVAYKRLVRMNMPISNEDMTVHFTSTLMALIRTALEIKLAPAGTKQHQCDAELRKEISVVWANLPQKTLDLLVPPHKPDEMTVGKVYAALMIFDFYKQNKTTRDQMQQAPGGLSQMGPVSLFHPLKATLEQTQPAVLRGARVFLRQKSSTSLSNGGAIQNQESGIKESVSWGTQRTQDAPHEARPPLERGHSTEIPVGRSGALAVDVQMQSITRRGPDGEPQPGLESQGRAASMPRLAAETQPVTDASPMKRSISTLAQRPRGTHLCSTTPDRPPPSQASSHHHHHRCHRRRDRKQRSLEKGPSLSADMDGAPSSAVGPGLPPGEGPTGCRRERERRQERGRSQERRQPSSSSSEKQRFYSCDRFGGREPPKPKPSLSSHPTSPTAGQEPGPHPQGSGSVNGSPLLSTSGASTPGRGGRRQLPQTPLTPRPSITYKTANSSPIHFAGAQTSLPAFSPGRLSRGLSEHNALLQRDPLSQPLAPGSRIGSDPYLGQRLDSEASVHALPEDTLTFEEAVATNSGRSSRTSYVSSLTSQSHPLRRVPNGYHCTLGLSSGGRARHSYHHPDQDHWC
Kappa-type opioid receptor (Homo sapiens), sequence (P41145 whole entry): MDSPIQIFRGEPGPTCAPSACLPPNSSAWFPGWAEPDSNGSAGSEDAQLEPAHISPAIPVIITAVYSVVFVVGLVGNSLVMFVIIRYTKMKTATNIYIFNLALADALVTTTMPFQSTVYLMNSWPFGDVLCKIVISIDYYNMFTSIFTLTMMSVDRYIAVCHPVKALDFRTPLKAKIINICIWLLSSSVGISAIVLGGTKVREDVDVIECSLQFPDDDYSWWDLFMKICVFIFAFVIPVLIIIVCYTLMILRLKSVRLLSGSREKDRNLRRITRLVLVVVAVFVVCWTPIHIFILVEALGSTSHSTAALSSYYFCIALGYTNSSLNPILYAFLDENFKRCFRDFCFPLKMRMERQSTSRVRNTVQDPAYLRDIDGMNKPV

Turning to `CC(C)CC[C@@H](O)C(CC1CCCCC1)NC(=O)C(C)NC(=O)C(Cc1ccccc1)NC(=O)OC(C)(C)C` (some centres undefined), the Activity on Renin (Homo sapiens) amounted to 200 nM.

For the compound `CC(C)=CCCN1CCC(NC(=O)[C@@](O)(c2ccccc2)[C@H]2CCC(NC(=O)OCc3ccccc3)C2)CC1` (some centres undefined), the Activity in assay [1] is 5.2 nM.

On to `CC(C)(C)OC(=O)NC(C(=O)N1CCC[C@H]1C(=O)NCC1CCC(N)CC1)c1ccccc1` (some centres undefined), for which the Activity in assay [2] was determined as 6.8 nM.

For the compound `COc1ccc(NC(=O)NC2N=C(c3ccccc3)c3ccccc3N(C)C2=O)cc1` (centres undefined), the Activity in assay [3] is 165 nM.

On to `CC(C)(C)OC(=O)N[C@@H](Cc1ccccc1)C(=O)N1CCN(C(c2ccc(F)cc2)c2ccc(F)cc2)CC1`, for which the Activity in assay [4] came out at 250 nM.

Compound `CCCC1(C(=O)Nc2cccc(F)c2)CCc2c(c3ccccc3n2CC(=O)O)C1` (centres undefined) gave an Activity in assay [5] of 22 nM.

`CCOC(=O)CN(c1cc(C)cc(OCCc2ccc(C(=N)N)cc2)c1)S(=O)(=O)c1ccccc1Cl` returned an Activity in assay [2] of 300 nM.

`C[C@@]12Cc3cnn(-c4ccc(F)cc4)c3C=C1CC[C@H]1C2=CC[C@H](C(F)(F)F)[C@H]1NCc1ccc(F)cc1` registered an Activity in [6] of 3 nM.

In turn, `C=CCN(CC(=O)OCC)C(=O)/C(C)=C/c1ccc(C(=O)Nc2ccc(C(=N)N)cc2)cc1` showed an Activity in assay [7] of 65 nM.

For `COC(=O)N[C@H](C(=O)N(C)[C@@H](CN1CCCC1)c1ccccc1)c1ccccc1`, in assay [8], the Activity stood at 178 nM.

In [9], `O=C(O)Cc1nn(CC(=O)Nc2cccc(F)c2)c(=O)c2ccccc12` displayed an Activity of 22 nM.

Take `O=C(Nc1ccccc1)NC1CC(C(=O)O)Nc2cc(Cl)cc(Cl)c21` (centres undefined): the Activity in [10] stood at 2 nM.

The compound `Fc1ccc(CNc2nccc(-c3c(-c4ccc(F)cc4)nc4occn34)n2)cc1` came in with an Activity in assay [11] of 90.9 nM.

In assay [12], `O=C(O)C(Cc1ccccc1)NC(=O)[C@H](Cc1ccc2c(c1)oc1ccccc12)NCP(=O)(O)O` (some centres undefined) displayed an Activity of 12 nM.

`Cc1cccc(C[C@@H](NC(=O)C(c2ccccc2)c2ccccc2)C(=O)N[C@@H](C#N)COCc2ccccc2)c1`: in assay [13], the Activity was found to be 10.2 nM.

With `O=C(Nc1ncc([N+](=O)[O-])s1)C(c1ccccc1)c1ccccc1`, the Activity in [4] was found to be 250 nM.

Turning to `COc1ccc(NC(=O)C(CS)Cc2ccccc2)cc1` (centres undefined), in assay [12], the Activity worked out at 26 nM.

For `CC(C)C[C@H](NC(=O)[C@@H](C)NC(=O)[C@@H](Cc1ccccc1)NC(=O)OC(C)(C)C)C(O)CSC(C)C` (single isomer, unassigned), on Renin (Homo sapiens), the Activity is 700 nM.

In assay [14], `CN1CC[C@H](c2ccc(Cl)cc2)[C@H](CSCC(=O)NCCc2ccccc2)C1` gave an Activity of 23 nM.

Regarding `O=C(C[C@H](CCCc1ccc(Cl)cc1)C(=O)N[C@@H](CC1CCCCC1)C(=O)NCCc1ccccc1)NO`, the Activity in [15] came to 7.31 nM.

Compound `O=C(CCC(NS(=O)(=O)c1ccc2oc3ccccc3c2c1)C(=O)O)NCCc1ccccc1` (centres undefined) had an Activity in [15] of 325 nM.

Take `CCc1cc(-c2ccn[nH]2)c(O)cc1OCCCOc1ccc(CC(=O)O)cc1`: the Activity in [7] was 54 nM.

In assay [16], `N[C@@H](C(=O)O)[C@H]1[C@H](CNC(=O)Nc2ccccc2)[C@H]1C(=O)O` returned an Activity of 530 nM.

As to `Cn1c(C(=O)Nc2ccccc2C(=O)NC(Cc2ccccc2)C(=O)O)cc2ccccc21` (centres undefined), the Activity in [3] came to 350 nM.
